Laboratory results reported in paper PMC11400632, “Substrate selectivity and inhibition of the human lysyl hydroxylase JMJD7” (Protein Science : A Publication of the Protein Society, 2024).
One block for each compound: values may come before it. Square brackets hold non-standard residues; d marks the D form. Ends that are not written are not given here. Peptide text beside a SMILES is read from it. 4Pal = N[C@@H](Cc1ccncc1)C(=O)O; Met(O) = CS(=O)CC[C@H](N)C(=O)O; SeMet = C[Se]CC[C@H](N)C(=O)O; Nle = CCCC[C@H](N)C(=O)O

Legend:
Assay type in all cases: biochemical
[1] = target: T1, human JMJD7 (Homo sapiens, UniProt P0C870); assay: MALDI-TOF MS JMJD7 inhibition assay; settings: 200 nM JMJD7 preincubated 15 min with peptide (1 nM–150 μM); 5 μM DRG1-Lys (17–40) substrate, 10 μM 2OG, 25 min, room temperature, Tris pH 7.5, MALDI MS; duplicate (n = 2), ± SE; read-out: IC50 (JMJD7 inhibition, with 15 min preincubation)
T1 construct: human JMJD7 (residues 1–316) with an N‐terminal His6‐tag; His6 (N); made in house; host or cells: Escherichia coli Rosetta (DE3)

[2] = target: T1, human JMJD7; assay: LC-MS assay of JMJD7-catalyzed hydroxylation/oxidation of DRG1 peptides; settings: for extent of hydroxylation by JMJD7 at higher 2OG concentration / degree of oxidation (+16 Da) of cysteine/methionine analog peptides by JMJD7: 2 μM JMJD7, 10 μM peptide; for extent of hydroxylation by JMJD7 at higher 2OG concentration: 20 μM 2OG, pH 7.5, 2 h incubation; for fate of the JMJD7 C3-hydroxylation product: 2 h; for extent of hydroxylation (+16 Da) by JMJD7: standard conditions: 2 μM JMJD7, 10 μM DRG1 peptide, room temperature
Protocol: Initial assays were carried out by incubation of purified recombinant (Markolovic et al., [2018]) human JMJD7 (2 μM) in the presence of a DRG1 derived peptide (10 μM), 2OG (10 μM), ferrous ammonium sulfate (FAS, 10 μM), and L‐ascorbate (LAA, 100 μM) in Tris buffer at pH 7.5 for 2 h at room temperature. Potential conversion to a hydroxylated product (+16 Da mass shift) was monitored by liquid‐chromatography‐mass‐spectrometry (LC–MS). […] The assay results also implied that DRG1‐Orn was hydroxylated, but to a lower extent (~21%) than DRG1‐Lys. […] The alcohol‐containing peptide hydroxynorleucine (DRG1‐HNle), was hydroxylated at relatively low levels (~24%), implying that H‐bonding interactions and positive charge of the N^ɛ‐amino group of lysine are important for efficient binding and catalysis, but that a neutral alcohol can still be accommodated at the active site (Figure 3f) (Markolovic et al., [2018]).
All reagents were procured from Sigma Aldrich. 2‐Oxoglutarate (2OG, 10 mM) and L‐ascorbic acid (LAA, 50 mM) solutions were prepared freshly by dissolving the solids in deionized water. Ferrous ammonium sulfate (FAS) solution was prepared freshly by dissolving FAS at 400 mM in 20 mM HCl with subsequent dilution to 1 mM using deionized water. JMJD7 assays using DRG1 (16–40) based peptides were performed with the following conditions: (i) 2 or 5 μM JMJD7, 10 μM DRG1 peptide, 100 μM LAA, 10 μM FAS, 10 μM 2OG in mM 50 Tris‐buffer (pH 7.5), (ii) 2 μM JMJD7, 10 μM DRG1 peptide, 100 μM LAA, 10 μM FAS, 20 μM 2OG in mM 50 Tris‐buffer (pH 7.5). Reactions were initiated by addition of enzyme to the cosubstrate/substrate solution in a final reaction volume of 50 μL with 2 h incubation at room temperature. A positive control reaction containing enzyme and a validated peptide substrate was included in all screening studies. After 2 h, reactions were stopped by addition of 5 μL of 10% (v/v) LC–MS grade formic acid (Fisher Scientific) and transferred to a 96 well plate (Agilent). Intact mass peptide analysis was performed by LC–MS using an Agilent 1290 infinity II LC system equipped with an Agilent 1290 multisampler and an Agilent 1290 high speed pump and connected to an Agilent 6550 accurate mass iFunnel quadrupole time of flight (Q‐TOF) mass spectrometer. The reaction mixture (4 μL) was injected and loaded onto a ZORBAX RRHD Eclipse Plus C18 column (Agilent). Solvent A consisted of LC–MS grade water containing 0.1% (v/v) formic acid and solvent B consisted of MeCN containing 0.1% (v/v) formic acid. Peptides were separated using a step wise gradient (0 min – 95% solvent A, 1.0 min – 80% solvent A, 3.0 min – 45% solvent A, 4.0 min – 45% solvent A, 5.0 min – 0% solvent A, 6.0 min – 0% solvent A, 7.0 min – 95% solvent A). This was followed by a 3 min elution with 95% solvent A to re‐equilibrate the column. Flow rates were 0.2 mL/min. The mass spectrometer was operated in the positive ion mode with a drying gas temperature (280°C), drying gas flow rate (13 L min^−1), nebulizer pressure (40 psig), sheath gas temperature (350°C), sheath gas flow rate (12 L min^−1), capillary voltage (4000 V), nozzle voltage (1000 V). Data were analyzed using Agilent MassHunter Qualitative Analysis (Version B.07.00) software.

[3] = target: T1, human JMJD7; assay: SPE-MS time-course and steady-state kinetics of JMJD7-catalyzed hydroxylation; settings: for k cat/K m / k cat / K m: SPE-MS, DRG1 peptide 0.1–5.0 μM, 2OG 20 μM, FAS 10 μM, LAA 100 μM, JMJD7 100 nM; for k cat: in min^-1; for K m: in µM (unit assumed)
Protocol: Having shown that introduction of γ‐thialysine and γ‐azalysine residues into DRG1 peptides generates substrates that are efficiently hydroxylated by JMJD7, giving nascent products that fragment to give formylglycine, we explored whether these two peptides could compete with the DRG1‐Lys substrate for JMJD7 catalysis. The reactions of DRG1‐Lys, DRG1‐CysNH2 and DRG1‐LysN (1.0 μM) by JMJD7 (50 nM) were investigated as a function of time using SPE‐MS assays.
To quantify the relative efficiencies of DRG1‐Lys and the substrate analog DRG1‐LysE, we carried out kinetics analyses using SPE‐MS assays as the levels of JMJD7‐catalyzed hydroxylation were sufficient for these two substrates.
JMJD7 turnover assays for kinetic studies were performed in 96‐well polypropylene assay plates with 1.0 mL total reaction volume using a series of concentrations of the DRG1 peptide (0.1–5.0 μM), 2OG (20 μM), FAS (10 μM), LAA (100 μM). Reactions were initiated by the addition of JMJD7 (100 nM). MS‐analyses were performed using a RapidFire RF 365 high‐throughput sampling robot (Agilent) attached to an iFunnel Agilent 6550 accurate mass quadrupole time‐of‐flight (Q‐TOF) mass spectrometer operated in the positive ionization mode. The RapidFire RF 365 high‐throughput sampling robot was programmed to aspirate samples from the reaction mixture at the indicated time intervals. Assay samples were loaded onto a C4 solid phase extraction (SPE) cartridge and peptides were eluted using given previous protocols (Tumber et al., [2023]). The % conversion of the hydroxylation reaction were calculated from the ion chromatogram data by integrating peak areas using RapidFire Integrator 4.3.0 software (Agilent).

[4] = 10 μM 2OG, 10 μM FAS, 100 μM LAA
[5] = standard conditions: 2 μM JMJD7, 10 μM peptide, 10 μM 2OG
[6] = 10 μM 2OG, 10 μM FAS, 100 μM LAA, Tris pH 7.5, 2 h
[7] = 1.0 μM peptide, 50 nM JMJD7, SPE-MS time-course

T1 sequence (P0C870 whole entry, the tested form may be a part): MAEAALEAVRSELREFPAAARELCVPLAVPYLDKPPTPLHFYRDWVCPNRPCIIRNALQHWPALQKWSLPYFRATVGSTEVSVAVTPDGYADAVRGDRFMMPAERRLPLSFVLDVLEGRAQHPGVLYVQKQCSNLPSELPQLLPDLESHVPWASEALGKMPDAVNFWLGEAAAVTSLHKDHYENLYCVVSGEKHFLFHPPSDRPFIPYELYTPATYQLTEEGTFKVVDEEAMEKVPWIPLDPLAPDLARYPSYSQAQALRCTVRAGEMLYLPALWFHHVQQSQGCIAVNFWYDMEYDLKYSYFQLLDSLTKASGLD

Compound: CC(C)C[C@H](NC(=O)CNC(=O)[C@H](CC(C)C)NC(=O)[C@H](Cc1c[nH]cn1)NC(=O)[C@H](Cc1c[nH]cn1)NC(=O)[C@H](C)NC(=O)[C@@H](NC(=O)[C@H](C)NC(=O)[C@H](Cc1ccncc1)NC(=O)[C@H](CC(N)=O)NC(=O)[C@H](CCCCN)NC(=O)[C@H](CCC(N)=O)NC(=O)[C@@H](NC(=O)[C@H](CCCNC(=N)N)NC(=O)[C@H](C)N)[C@@H](C)O)[C@@H](C)O)C(=O)N[C@@H](CC(C)C)C(=O)N[C@@H](CCCCN)C(=O)N[C@@H](C)C(=O)N[C@@H](CCCNC(=N)N)C(=O)N[C@@H](CC(C)C)C(=O)N[C@@H](C)C(=O)N[C@@H](CCCCN)C(=O)N[C@@H](CC(C)C)C(=O)N[C@@H](CCCNC(=N)N)C(=O)N[C@@H](CCCNC(=N)N)C(N)=O [DRG1‐4pyrA] (H-ARTQKN[4Pal]ATAHHLGLLKARLAKLRR-NH2)
- IC50 [1]: 15.2 µM

Compound: ARTQKNAhpATAHHLGLLKARLAKLRR [DRG1‐Ahp, 25-mer DRG1 (16–40) peptide with Ahp at position 22]
- extent of hydroxylation by JMJD7 at higher 2OG concentration ([2]; 10 μM FAS, 100 μM LAA): did not manifest evidence for hydroxylation

Compound: ARTQKNCysNHmeATAHHLGLLKARLAKLRR [DRG1‐CysNHMe, 25-mer DRG1 (16–40) peptide with γ-methylthialysine at position 22]
- possibly stable hemithioacetal product detected by MS ([2]; standard conditions: 2 μM JMJD7, 10 μM peptide, 10 μM 2OG, 10 μM FAS, 100 μM LAA, Tris pH 7.5, 2 h): 12%
- fate of the JMJD7 C3-hydroxylation product [2, 5]: fragmentation to form DRG1‐formylglycine and its hydrated products

Compound: ARTQKNLysATAHHLGLLKARLAKLRR [DRG1‐Lys, 25-mer DRG1 fragment peptide (residues 16–40), C-terminal amide, Lys at position 22; JMJD7 substrate, reference compound]
- extent of hydroxylation by JMJD7 at higher 2OG concentration ([2]; 10 μM FAS, 100 μM LAA): ~ 98%
- extent of hydroxylation (+16 Da) by JMJD7 [2, 6]: ~ 78%
- hydroxylation within 9 min ([3]; 1.0 μM peptide, 50 nM JMJD7, SPE-MS time-course, 9 min): ~ 90%
- k cat/K m [3]: 155000 M⁻¹ s⁻¹
- k cat [3]: 13.0 ± 0.36
- K m [3]: 1.4 ± 0.59
- substrate inhibition of JMJD7 ([3]; increased substrate concentrations, 100 nM JMJD7, 20 μM 2OG, 10 μM FAS, 100 μM LAA, pH 7.5): substrate inhibition of JMJD7 was observed

Compound: ARTQKNLysMeATAHHLGLLKARLAKLRR [DRG1‐LysMe, 25-mer DRG1 (16–40) peptide with LysMe at position 22]
- extent of hydroxylation by JMJD7 at higher 2OG concentration ([2]; 10 μM FAS, 100 μM LAA): ~ 7%

Compound: ARTQKNMetATAHHLGLLKARLAKLRR [DRG1‐Met]
- degree of oxidation (+16 Da) of cysteine/methionine analog peptides by JMJD7 [2, 4]: ~ 86%
- relative rate / turnover in the time-course [3, 7]: turnover appeared to be low

Compound: ARTQKN[SeMet]ATAHHLGLLKARLAKLRR [DRG1‐SeMet, 25-mer DRG1 (16–40) peptide with SeMet at position 22]
- degree of oxidation (+16 Da) of cysteine/methionine analog peptides by JMJD7 [2, 4]: showed no evidence for oxidation

Compound: ARTQKNhSerATAHHLGLLKARLAKLRR [DRG1‐hSer, 25-mer DRG1 (16–40) peptide with hSer at position 22]
- degree of oxidation (+16 Da) of cysteine/methionine analog peptides by JMJD7 [2, 4]: did also not undergo oxidation

Compound: ARTQKNnArgATAHHLGLLKARLAKLRR [DRG1‐nArg, 25-mer DRG1 (16–40) peptide with nArg at position 22]
- extent of hydroxylation by JMJD7 at higher 2OG concentration ([2]; 10 μM FAS, 100 μM LAA): did not manifest evidence for hydroxylation

The next lines start with results.

- degree of oxidation (+16 Da) of cysteine/methionine analog peptides by JMJD7 [2, 4]: oxidized relatively efficiently
Compound: ARTQKNCysMeATAHHLGLLKARLAKLRR [DRG1‐CysMe, 25-mer DRG1 (16–40) peptide with CysMe at position 22]

- extent of hydroxylation by JMJD7 at higher 2OG concentration ([2]; 10 μM FAS, 100 μM LAA): ~ 6%
- extent of hydroxylation (+16 Da) by JMJD7 [2, 6]: not hydroxylated within detection limits
Compound: ARTQKND-LysATAHHLGLLKARLAKLRR [DRG1‐D‐Lys, 25-mer DRG1 (16–40) peptide with epimeric D-lysine at position 22]

- extent of hydroxylation by JMJD7 at higher 2OG concentration ([2]; 10 μM FAS, 100 μM LAA): ~ 56%
- extent of hydroxylation (+16 Da) by JMJD7 [2, 6]: ~ 24%
- relative rate / turnover in the time-course [3, 7]: turnover was low
Compound: ARTQKNH[Nle]ATAHHLGLLKARLAKLRR [DRG1‐HNle, 25-mer DRG1 (16–40) peptide with hydroxynorleucine at position 22]

- extent of hydroxylation (+16 Da) by JMJD7 [2, 6]: 90%
- k cat/K m [3]: 133000 M⁻¹ s⁻¹
- k cat [3]: 24.7 ± 0.36
- K m [3]: 3.1 ± 0.81
Compound: ARTQKNLysEATAHHLGLLKARLAKLRR [DRG1‐LysE, 25-mer DRG1 (16–40) peptide with (E)-dehydrolysine at position 22]

- relative rate / turnover in the time-course [3, 7]: oxidized more slowly than DRG1‐CysNH2
Compound: ARTQKNLysNATAHHLGLLKARLAKLRR [DRG1‐LysN, 25-mer DRG1 (16–40) peptide with γ-azalysine at position 22]
- fate of the JMJD7 C3-hydroxylation product [2, 5]: fragmentation to form DRG1‐formylglycine and its hydrated products

- degree of oxidation (+16 Da) of cysteine/methionine analog peptides by JMJD7 [2, 4]: showed no evidence for oxidation
Compound: ARTQKN[Met(O)]ATAHHLGLLKARLAKLRR [DRG1‐MetO]

- extent of hydroxylation by JMJD7 at higher 2OG concentration ([2]; 10 μM FAS, 100 μM LAA): ~ 5%
Compound: ARTQKNhLysATAHHLGLLKARLAKLRR [DRG1‐hLys, 25-mer DRG1 (16–40) peptide with hLys at position 22]
- extent of hydroxylation (+16 Da) by JMJD7 [2, 6]: did not undergo hydroxylation within detection limits

- degree of oxidation (+16 Da) of cysteine/methionine analog peptides by JMJD7 [2, 4]: ~ 89%
Compound: ARTQKNhMetATAHHLGLLKARLAKLRR [DRG1‐hMet, 25-mer DRG1 (16–40) peptide with homomethionine at position 22]

- degree of oxidation (+16 Da) of cysteine/methionine analog peptides by JMJD7 [2, 4]: showed no evidence for oxidation
Compound: ARTQKNmeOhSerATAHHLGLLKARLAKLRR [DRG1‐meOhSer, 25-mer DRG1 (16–40) peptide with meOhSer at position 22]
